These results are taken from patent US20220370493A1, “METHODS AND COMPOSITIONS FOR GENERATING NITRIC OXIDE AND USES THEREOF” (THIRTY HOLDINGS LIMITED, priority 2019, published 2022).

Structures are written as SMILES.

In data set [1] the test system is SARS-CoV-2 clinical isolate. In words: SARS-CoV-2 virus yield reduction assay in Vero E6 cells. The class given is cell-based. How it is done:
SARS-CoV-2 clinical isolate.
At time 0 hr, Vero E6 cells were infected with virus in presence of the formulation or controls and incubated for 1 hour. After this incubation period the inoculum was removed and the cells were washed. Fresh formulation or controls were then added to the washed cells. At 24 hours post infection, Vero E6 cell supernatants were harvested and titrated, and the virus titration was incubated for 6 days prior to readout to determine any virus yield reduction. Separate tests were performed at four MOIs including 3.0 and 0.3, although only those two MOIs were titrated. The readout was by crystal violet (cell monolayer) staining, followed by CPE scoring.

For `CCN(CC)CCCC(C)Nc1ccnc2cc(Cl)ccc12` (stereo not shown) [chloroquine, Chloroquine phosphate], the SARS-CoV-2 titre entry is “limit of detection” in data set [1] (FIG. 33, Run 1, MOI 3.0, 24 hours); “limit of detection” in data set [1] (FIG. 34, Run 2, MOI 3.0 and MOI 0.3, 48 hours).
Consider `O=C(O)CC(O)(CC(=O)O)C(=O)O` [citric acid pH 5.8, citric acid], for which the “cytotoxicity on the LDH assay” value in the data set on Vero E6 cells was “low cytotoxicity”. Besides, in data set [1] (FIGS. 33 and 34, MOI 3.0 and 0.3), the “in vitro antiviral action against SARS-CoV-2” value is recorded as “high in vitro antiviral action”.
